Test [1] relates to HeLa S3 cells. The experiment in a line: Evaluation test 2 of multinucleation-inducing activity (multinucleation induction ratio). It is filed as cell-based, human. The conditions noted are these: 50 μM peptide, 4 days; for number of multinuclear cells (number): cells with two or more nuclei in 1 field of vision, individual test; for multinucleation induction ratio (%): individual test (1 field of vision). As to the method:
The multinucleation induction ratio was determined for the multinucleation-inducing synthetic peptides (sample 1 and sample 2) obtained in Example 1. The same HeLa S3 cells as in Example 2 were used for the sample cells. The evaluation test is described in the following.
HeLa S3 cells were seeded into each well of an 8-chamber (well) cell culture slide (also referred to as a chamber) to provide approximately 0.5×10^3 cells per well and were cultured overnight in an incubator under conditions of 5% CO2 and 37° C. The medium used was a common DMEM medium, i.e., DMEM (Wako Pure Chemical industries, Ltd., Cat. No. 043-30085) containing 10% FBS, 100 units/mL of penicillin, and 100 μg/mL of streptomycin. After this overnight culture, the medium in the culture chamber was exchanged for medium obtained by the addition of sample 1 or sample 2 in an amount giving a peptide concentration of 50 μM to DMEM medium prepared by adding 3% FBS, 100 units/mL of penicillin, and 100 μg/mL of streptomycin to the aforementioned DMEM, and subculturing was carried out by culture for 4 days under the same conditions. The control group was a peptide-free group in which only PBS (−) was added in the same volume as the peptide stock solution that was added in the sample addition groups.
After completion of the culture period, the cells in the test groups were subjected to cytoimmunostaining of a cytoplasm marker (calreticulin) nuclear staining as in Example 2. After the execution of the cytoimmunostaining and nuclear staining, the cells each test group were subjected to fluorescence observation using a confocal laser microscope and, for the cells observed in 1 field of vision, the total number of cells and the number of cells presenting two or more nuclei (number of multinucleated cells) were counted. The multinucleation induction ratio (proportion (%) for the number of cells having two or more nuclei with reference to the total number of cells observed in 1 field of vision in the microscopic observation) was calculated using the following formula: multinucleation induction ratio (%)=(number of cells having two or more nuclei)÷(total number of cells)×100. Using these conditions air the evaluation test for the multinucleation induction ratio, the test was carried out independently three times and the average multinucleation induction ratio was calculated by taking the average of the multinucleation induction ratios obtained in the individual tests.

Test [2] deals with HeLa S3 cells. The experiment in a line: Evaluation test 1 of multinucleation-inducing activity (calreticulin cytoimmunostaining and DAPI nuclear staining, confocal fluorescence observation). It is filed as cell-based, human. To be noted: peptide concentration 50 μM, culture for 4 days. As to the method:
To evaluate the multinucleation-inducing activity of the multinucleation-inducing synthetic peptides (sample 1 and sample 2) obtained in Example 1, cytoimmunostaining (fluorescence immunostaining) was performed using calreticulin as the cytoplasm marker and nuclear staining was performed with DAPI (4′,6-diamidino-2-phenylindole). HeLa S3 cells (ATCC (registered trademark), CCL2.2), a cultured cell strain originating from human cervical cancer, were used as the sample cells. The evaluation test is described in the following.
HeLa S3 cells were seeded into each well of a 4-chamber (well) cell culture slide (also referred to as a chamber) to provide approximately 1×10^3 cells per well and were cultured overnight in an incubator under conditions of 5% CO2 and 37° C. The medium used was a common DMEM medium, i.e., DMEM (Wako Pure Chemical Industries, Ltd., Cat. No. 043-30085) containing 10% […], 100 units/mL of penicillin, and 100 μg/mL of streptomycin. After this overnight culture, the medium in the culture chamber was exchanged for medium obtained by the addition, to the aforementioned DMEM medium containing PBS, penicillin and streptomycin, of the sample 1, sample 2, or sample 3 peptide in an amount providing a peptide concentration of 50 μM, and subculturing was carried out by culture for 4 days under the same conditions. The control group was a peptide-free group in which only PBS (−) was added in the same volume as the peptide stock solution that was added in the sample addition groups.
After completion of the culture period, the status of multinucleation in the cells in each test group was observed using the following cytoimmunostaining.
The cells in each test group wore first fixed followed by a blocking treatment. Specifically, the medium in the culture chamber in the test group was first removed and washing was carried out twice with cold PBS (−). A solution prepared by mixing 1 volume of methanol with 1 volume of acetone (methanol/acetone=1:1 solution) was then added and the HeLa S3 cells were fixed by standing for 15 minutes on ice. The methanol/acetone=1:1 solution was then removed acid washing was carried out three times with cold PBS PBS (−) containing 3% BSA (PBS (−) that contained 3% BSA) was added and a blocking treatment was carried out for 1 hour at room temperature. After the passage of the prescribed period of time, the PBS (−) containing 3% BSA was removed and washing with cold PBS (−) was performed three times. […]
The cells in each test group that had been subjected to this cytoimmunostaining were mounted using a cover glass and Slow Fade (Life Technologies Corporation, Cat. No. S36936), which is a DAPI-containing mountant, and fluorescence observation was performed using a confocal laser microscope. […]

Values joined by “and” are separate entries in the source; they are usually repeats but may differ in a detail not shown here. Identical values can stand only once. Peptide text beside a SMILES is read from it.

Take `CC(C)C[C@H](NC(=O)[C@@H](NC(=O)[C@H](CCCNC(=N)N)NC(=O)[C@H](CCCCN)NC(=O)[C@@H](N)CCCCN)[C@@H](C)O)C(=O)N[C@@H](CCCNC(=N)N)C(=O)N[C@@H](CCCCN)C(=O)N[C@@H](CC(N)=O)C(=O)N[C@@H](CC(=O)O)C(=O)N[C@@H](CCCNC(=N)N)C(=O)N[C@@H](CCCCN)C(=O)N[C@@H](CCCCN)C(=O)N[C@@H](CCCNC(=N)N)C(=O)NCC(=O)NCC(=O)N[C@@H](CS)C(=O)N1CCC[C@H]1C(=O)N[C@@H](CC(=O)O)C(=O)NCC(=O)N[C@@H](C)C(=O)N[C@@H](CCCCN)C(=O)N[C@@H](C)C(=O)N[C@@H](CCCNC(=N)N)C(=O)N[C@@H](CS)C(=O)O` [sample 1, KKRTLRKNDRKKR GG CPDGAKARC] (H-KKRTLRKNDRKKRGGCPDGAKARC-OH; N-terminus and C-terminus assumed): in the test on HeLa S3 cells [1], the “number of multinuclear cells (number)” value was 12 number and 11 number and 13 number; the “multinucleation induction ratio (%)” value was 41.4% and 39.3% and 41.9%. In addition, in the test on HeLa S3 cells [2], the “cells in which a plurality of nuclei had formed (induction of multinucleation), fluorescence observation” value (from here on “cells in which a plurality”) is listed as “cells in which a plurality of nuclei had formed were observed” and the “number of nuclei per multinucleated cell, compared with sample 2 addition group” value is given as “significantly larger number of nuclei per cell”.
In the case of `CC(C)C[C@H](NC(=O)[C@@H](NC(=O)[C@H](CCCNC(=N)N)NC(=O)[C@H](CCCCN)NC(=O)[C@@H](N)CCCCN)[C@@H](C)O)C(=O)N[C@@H](CCCNC(=N)N)C(=O)N[C@@H](CCCCN)C(=O)N[C@@H](CC(N)=O)C(=O)N[C@@H](CC(=O)O)C(=O)N[C@@H](CCCNC(=N)N)C(=O)N[C@@H](CCCCN)C(=O)N[C@@H](CCCCN)C(=O)N[C@@H](CCCNC(=N)N)C(=O)NCC(=O)NCC(=O)N[C@@H](CS)C(=O)N[C@@H](CO)C(=O)N[C@@H](CCCNC(=N)N)C(=O)N[C@@H](CCCNC(=N)N)C(=O)N[C@@H](CO)C(=O)N[C@@H](CCCCN)C(=O)N[C@@H](CO)C(=O)N[C@@H](CCCCN)C(=O)N[C@@H](CS)C(=O)O` [sample 2, KKRTLRKNDRKKR GG CSRRSKSKC] (H-KKRTLRKNDRKKRGGCSRRSKSKC-OH; N-terminus and C-terminus assumed), the “average multinucleation induction ratio (%)” value with HeLa S3 cells [1] (average of three independent tests) amounted to 35.6%. Moreover, in the test on HeLa S3 cells [1], the “number of multinuclear cells (number)” value is 9 number and 12 number and 11 number; the “multinucleation induction ratio (%)” value is 30.0% and 37.5% and 39.3%. The “cells in which a plurality” value with HeLa S3 cells [2] was “cells in which a plurality of nuclei had formed were observed”.
As for “KKRTLRKNDRKKR (listed as Homo sapiens) [sample 3, reference compound]”, in the test on HeLa S3 cells [2], the “cells in which a plurality” value is reported as “cells in which a plurality of nuclei had formed were not observed”.
